Experimental data taken from the supplement of paper PMC10307832.

Key:
Test in all cases: relative viability (nuclei count vs DMSO), 5 days (fraction); higher = more cells survive
CAL-12T = test system: CAL-12T
Summary of the method: (§1)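 Each reported value is a median over duplicate plates. It expresses relative viability: treated-well nuclei count divided by vehicle-well nuclei count. Lung cancer cell lines in 1536-well plates were dosed by pin tool a day after seeding, alone with one drug or with a fixed anchor-drug dose plus five library-drug doses (not always all listed) in √10 steps, and nuclei were counted after 5 days.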

NCI-H1650 = test system: NCI-H1650
Summary of the method: as §1

NCI-H2405 = test system: NCI-H2405
Summary of the method: as §1

LK-2 = test system: LK-2
Summary of the method: as §1

RERF-LC-KJ = test system: RERF-LC-KJ
Summary of the method: as §1

NCI-H2342 = test system: NCI-H2342
Summary of the method: as §1

NCI-H1755 = test system: NCI-H1755
Summary of the method: as §1

LCLC-97TM1 = test system: LCLC-97TM1
Summary of the method: as §1

NCI-H1355 = test system: NCI-H1355
Summary of the method: as §1

NCI-H1734 = test system: NCI-H1734
Summary of the method: as §1

PC-3 [JPC-3] = test system: PC-3 [JPC-3]
Summary of the method: as §1

NCI-H661 = test system: NCI-H661
Summary of the method: as §1

HCC-827 = test system: HCC-827
Summary of the method: as §1

NCI-H520 = test system: NCI-H520
Summary of the method: as §1

H3255 = test system: H3255
Summary of the method: as §1

PC-14 = test system: PC-14
Summary of the method: as §1

EKVX = test system: EKVX
Summary of the method: as §1

NCI-H1975 = test system: NCI-H1975
Summary of the method: as §1

NCI-H322M = test system: NCI-H322M
Summary of the method: as §1

NCI-H2228 = test system: NCI-H2228
Summary of the method: as §1

HCC-15 = test system: HCC-15
Summary of the method: as §1

For O=c1cc(-c2cccc3c2Sc2ccccc2S3)oc(N2CCOCC2)c1 + O=C(CCCCCCC(=O)Nc1ccccc1)NO [Vorinostat] (partner 1 µM), the relative viability (CAL-12T; first compound 0.08 µM) was 0.677, the relative viability (CAL-12T; first compound 0.253 µM) was 0.782 and the relative viability (CAL-12T; first compound 0.8 µM) was 0.765. For the same compound, the relative viability (CAL-12T; first compound 2.53 µM) was 0.799, the relative viability (CAL-12T; first compound 8 µM) was 0.699 and the relative viability (NCI-H1650; first compound 0.08 µM) was 0.535. The relative viability (NCI-H1650; first compound 0.253 µM) was 0.643, the relative viability (NCI-H1650; first compound 0.8 µM) was 0.602 and the relative viability (NCI-H1650; first compound 2.53 µM) was 0.502. The relative viability (NCI-H1650; first compound 8 µM) was 0.556, the relative viability (NCI-H2405; first compound 0.08 µM) was 0.925 and the relative viability (NCI-H2405; first compound 0.253 µM) was 0.99. It also gave a relative viability (NCI-H2405; first compound 0.8 µM) of 1.06, a relative viability (NCI-H2405; first compound 2.53 µM) of 0.842 and a relative viability (NCI-H2405; first compound 8 µM) of 0.983. The relative viability (LK-2; first compound 0.08 µM) was 0.261, the relative viability (LK-2; first compound 0.253 µM) was 0.327 and the relative viability (LK-2; first compound 0.8 µM) was 0.369. It also gave a relative viability (LK-2; first compound 2.53 µM) of 0.287, a relative viability (LK-2; first compound 8 µM) of 0.358 and a relative viability (RERF-LC-KJ; first compound 0.08 µM) of 0.558. It also gave a relative viability (RERF-LC-KJ; first compound 0.253 µM) of 0.64, a relative viability (RERF-LC-KJ; first compound 0.8 µM) of 0.713 and a relative viability (RERF-LC-KJ; first compound 2.53 µM) of 0.655. For the same compound, the relative viability (RERF-LC-KJ; first compound 8 µM) was 0.666, the relative viability (NCI-H2342; first compound 0.08 µM) was 0.752 and the relative viability (NCI-H2342; first compound 0.253 µM) was 0.831. The relative viability (NCI-H2342; first compound 0.8 µM) was 0.8, the relative viability (NCI-H2342; first compound 2.53 µM) was 0.691 and the relative viability (NCI-H2342; first compound 8 µM) was 0.699. The relative viability (NCI-H1755; first compound 0.08 µM) was 0.734, the relative viability (NCI-H1755; first compound 0.253 µM) was 0.797 and the relative viability (NCI-H1755; first compound 0.8 µM) was 0.795. The relative viability (NCI-H1755; first compound 2.53 µM) was 0.709, the relative viability (NCI-H1755; first compound 8 µM) was 0.8 and the relative viability (LCLC-97TM1; first compound 0.08 µM) was 0.638. The relative viability (LCLC-97TM1; first compound 0.253 µM) was 0.927, the relative viability (LCLC-97TM1; first compound 0.8 µM) was 0.803 and the relative viability (LCLC-97TM1; first compound 2.53 µM) was 0.602. For the same compound, the relative viability (LCLC-97TM1; first compound 8 µM) was 1.06, the relative viability (NCI-H1355; first compound 0.08 µM) was 0.628 and the relative viability (NCI-H1355; first compound 0.253 µM) was 0.709. The relative viability (NCI-H1355; first compound 0.8 µM) was 0.526, the relative viability (NCI-H1355; first compound 2.53 µM) was 0.654 and the relative viability (NCI-H1355; first compound 8 µM) was 0.584. For the same compound, the relative viability (NCI-H1734; first compound 0.08 µM) was 0.771, the relative viability (NCI-H1734; first compound 0.253 µM) was 0.94 and the relative viability (NCI-H1734; first compound 0.8 µM) was 0.824. It also gave a relative viability (NCI-H1734; first compound 8 µM) of 0.993, a relative viability (PC-3 [JPC-3]; first compound 0.08 µM) of 0.579 and a relative viability (PC-3 [JPC-3]; first compound 0.253 µM) of 0.788. It also gave a relative viability (PC-3 [JPC-3]; first compound 0.8 µM) of 0.769, a relative viability (PC-3 [JPC-3]; first compound 2.53 µM) of 0.79 and a relative viability (PC-3 [JPC-3]; first compound 8 µM) of 0.851. The relative viability (NCI-H661; first compound 0.08 µM) was 0.801, the relative viability (NCI-H661; first compound 0.253 µM) was 0.808 and the relative viability (NCI-H661; first compound 0.8 µM) was 0.807. It also gave a relative viability (NCI-H661; first compound 2.53 µM) of 0.734, a relative viability (NCI-H661; first compound 8 µM) of 0.789 and a relative viability (HCC-827; first compound 0.08 µM) of 0.768. The relative viability (HCC-827; first compound 0.253 µM) was 0.945, the relative viability (HCC-827; first compound 0.8 µM) was 0.77 and the relative viability (HCC-827; first compound 2.53 µM) was 0.476. The relative viability (HCC-827; first compound 8 µM) was 0.923, the relative viability (NCI-H520; first compound 0.08 µM) was 0.704 and the relative viability (NCI-H520; first compound 0.253 µM) was 0.856. It also gave a relative viability (NCI-H520; first compound 0.8 µM) of 0.741, a relative viability (NCI-H520; first compound 2.53 µM) of 0.787 and a relative viability (NCI-H520; first compound 8 µM) of 0.648. For the same compound, the relative viability (H3255; first compound 0.08 µM) was 0.811, the relative viability (H3255; first compound 0.253 µM) was 0.78 and the relative viability (H3255; first compound 0.8 µM) was 0.805. For the same compound, the relative viability (H3255; first compound 2.53 µM) was 0.878, the relative viability (H3255; first compound 8 µM) was 0.896 and the relative viability (PC-14; first compound 0.08 µM) was 0.734. The relative viability (PC-14; first compound 0.253 µM) was 0.879, the relative viability (PC-14; first compound 0.8 µM) was 0.685 and the relative viability (PC-14; first compound 2.53 µM) was 0.628. The relative viability (PC-14; first compound 8 µM) was 0.701, the relative viability (EKVX; first compound 0.08 µM) was 0.862 and the relative viability (EKVX; first compound 0.253 µM) was 0.839. The relative viability (EKVX; first compound 0.8 µM) was 0.601, the relative viability (EKVX; first compound 2.53 µM) was 0.675 and the relative viability (EKVX; first compound 8 µM) was 0.569. The relative viability (NCI-H1975; first compound 0.08 µM) was 0.687, the relative viability (NCI-H1975; first compound 0.253 µM) was 0.827 and the relative viability (NCI-H1975; first compound 0.8 µM) was 0.707. The relative viability (NCI-H1975; first compound 2.53 µM) was 0.671, the relative viability (NCI-H1975; first compound 8 µM) was 0.749 and the relative viability (NCI-H322M; first compound 0.08 µM) was 0.839. For the same compound, the relative viability (NCI-H322M; first compound 0.253 µM) was 1.01, the relative viability (NCI-H322M; first compound 0.8 µM) was 0.948 and the relative viability (NCI-H322M; first compound 2.53 µM) was 0.825. For the same compound, the relative viability (NCI-H322M; first compound 8 µM) was 0.867, the relative viability (NCI-H2228; first compound 0.08 µM) was 0.824 and the relative viability (NCI-H2228; first compound 0.253 µM) was 0.646. It also gave a relative viability (NCI-H2228; first compound 0.8 µM) of 0.76, a relative viability (NCI-H2228; first compound 2.53 µM) of 0.7 and a relative viability (NCI-H2228; first compound 8 µM) of 0.578. The relative viability (HCC-15; first compound 0.08 µM) was 0.906, the relative viability (HCC-15; first compound 0.253 µM) was 0.952 and the relative viability (HCC-15; first compound 0.8 µM) was 0.82. The relative viability (HCC-15; first compound 2.53 µM) was 0.722 and the relative viability (HCC-15; first compound 8 µM) was 0.808.
